Where two headings read alike, the source gives them in different places.
Experiments:
Format in all cases: in vivo
[1] = test system: Myzus persicae (green peach aphid); assay: Activity against Myzus persicae, mixed population, feeding/residual contact activity on sprayed cabbage plants; settings: 144 h, read-out: activity against Myzus persicae
Procedure: (§1) (mixed population, feeding/residual contact activity, plant damage evaluation)
(§2) Cabbage plants infested with a mixed population of Myzus persicae were treated with diluted test solutions of the compounds in a spray chamber. 6 days after treatment, samples were checked for mortality and for plant damage (phytotoxicity), visual assessment being made using a 0-100% rating scale (100% = total damage to plant; 0% = no damage to plant).

[2] = test system: Myzus persicae (green peach aphid); assay: Activity against Myzus persicae, mixed population, systemic/feeding activity, curative (pea seedling roots in test solution); settings: 144 h, read-out: activity
From the text: Example B2: Activity against Myzus persicae (green peach aphid) (mixed population, systemic/feeding activity, curative)
Roots of pea seedlings, infested with an aphid population of mixed ages, were placed directly in the test solutions. 6 days after introduction, samples were checked for mortality and special effects on the plant.

[3] = test system: Tetranychus urticae (two-spotted spider mite); assay: Activity against Tetranychus urticae, mixed population, feeding/residual contact activity, preventive (bean leaf discs); settings: foliar, 192 h, concentration of 400ppm, egg, larval and adult mortality checked 8 days later, bean leaf discs sprayed
From the text: Example B4: Activity against Tetranychus urticae (two-spotted spider mite)
(mixed population, feeding/residual contact activity, preventive)
Bean leaf discs on agar in 24-well microtiter plates were sprayed with test solutions. After drying, the leaf discs were infested with mite populations of mixed ages. 8 days later, discs were checked for egg mortality, larval mortality, and adult mortality.

cabbage plants = assay: Plant damage evaluation (phytotoxicity) on sprayed cabbage plants, visual 0-100% rating scale; settings: concentration of 200ppm; 6 days after treatment; 100% = total damage to plant, 0% = no damage to plant
Procedure: Example B5: Activity against Myzus persicae (green peach aphid)
as §1, §2

[4] = test system: Myzus persicae (green peach aphid); assay: Activity against Myzus persicae, mixed population, feeding/residual contact activity, preventive (sunflower leaf discs); settings: foliar, 144 h, read-out: activity
Procedure: Example B1: Activity against Myzus persicae (green peach aphid) (mixed population, feeding/residual contact activity, preventive)
Sunflower leaf discs were placed on agar in a 24-well microtiter plate and sprayed with test solutions. After drying, the leaf discs were infested with an aphid population of mixed ages. After an incubation period of 6 days, samples were checked for mortality and special effects (e.g. phytotoxicity).

[5] = concentration of 200ppm, mortality 6 days after treatment, cabbage plants, spray chamber
[6] = concentration of 400ppm, mortality checked 6 days after introduction, roots of pea seedlings in test solution
[7] = concentration of 400ppm, mortality checked after 6 days, sunflower leaf discs sprayed

Row | Compound | mortality at 200 ppm [1, 5] [%] | mortality at 400 ppm [2, 6] [%] | mortality at 400 ppm [3] [%] | mortality at 200 ppm [1] [%] | damage to cabbage plants (cabbage plants) [%] | mortality at 400 ppm [4, 7] [%] | mortality at 400 ppm [2] [%] | mortality at 400 ppm [4] [%]
1 | CO[C@H]1CC[C@@]2(CC1)C(=O)C(c1cc(C)ccc1C)C(=O)N2c1ccccc1 (relative stereo) [P2.1, cis-3-(2,5-dimethyl-phenyl)-8-methoxy-1-phenyl-1-aza-spiro[4.5]decane-2,4-dione] | ≥ 80 |  |  |  |  |  |  | 
2 | CCOC(=O)OC1=C(c2cc(C)ccc2C)C(=O)N(c2ccccc2)[C@]12CC[C@@H](OC)CC2 [P1.1, carbonic acid cis-3-(2,5-dimethyl-phenyl)-8-methoxy-2-oxo-1-phenyl-1-aza-spiro[4.5]dec-3-en-4-yl ester ethyl ester] | ≥ 80 |  |  |  |  |  |  | 
3 | CCOC(=O)OC1=C(c2cc(C)ccc2C)C(=O)N(c2ccccc2)C12CCN(OC)CC2 [P1.2] |  | > 80 | > 80 | ≥ 80 | ≤ 10 |  |  | 
4 | CCOC(=O)OC1=C(c2c(C)cc(Br)cc2C)C(=O)N(c2ccccc2)C12CCN(OC)CC2 [P1.3] |  | > 80 | > 80 | ≥ 80 | ≤ 10 | > 80 |  | 
5 | CCOC(=O)OC1=C(c2c(C)cc(C)cc2C)C(=O)N(c2ccccc2)C12CCN(OC)CC2 [P1.4] |  | > 80 |  |  |  |  |  | 
6 | CCOC(=O)OC1=C(c2c(C)cc(Cl)cc2C)C(=O)N(c2ccccc2)C12CCN(OC)CC2 [P1.5] |  | > 80 |  | ≥ 80 | ≤ 10 | > 80 |  | 
7 | CON1CCC2(CC1)C(=O)C(c1cc(C)ccc1C)C(=O)N2c1ccccc1 (centres unmarked) [P2.2] |  |  |  | ≥ 80 | ≤ 10 |  |  | 
8 | CON1CCC2(CC1)C(=O)C(c1c(C)cc(Br)cc1C)C(=O)N2c1ccccc1 (centres unmarked) [P2.3] |  | > 80 | > 80 | ≥ 80 | ≤ 10 | > 80 |  | 
9 | CON1CCC2(CC1)C(=O)C(c1c(C)cc(C)cc1C)C(=O)N2c1ccccc1 (centres unmarked) [P2.4] |  | > 80 | > 80 | ≥ 80 | ≤ 10 | > 80 |  | 
10 | CON1CCC2(CC1)C(=O)C(c1c(C)cc(Cl)cc1C)C(=O)N2c1ccccc1 (centres unmarked) [P2.5, 3-(4-chloro-2,6-dimethyl-phenyl)-8-methoxy-1-phenyl-1,8-diaza-spiro[4.5]decane-2,4-dione] |  |  |  | ≥ 80 | ≤ 10 |  | > 80 | > 80
